The text below walks through data of publication PMC10144134, “Characterization of Potent ABCG2 Inhibitor Derived from Chromone: From the Mechanism of Inhibition to Human Extracellular Vesicles for Drug Delivery” (Pharmaceutics, 2023).

The test system of one series is HEK293-ABCG2 cells. As to the kind of experiment: MTT chemosensitization assay, HEK293-ABCG2. Type of series: cell-based, human. The conditions noted are these: supernatant containing C4a free at 0.1 to 10 µM + SN38 10 nM. Here is the method:
HEK293 WT (wild type) and HEK293-ABCG2 cells were seeded (2.5 × 10^4 cell/well) into a 96-well plate and incubated for 24 h. Cells were concomitantly treated with EVs […]C4a (0.1, 1 and 10 μM) and SN-38 (10 nM) for 72 h. After this period, the medium was removed, cells were washed with PBS (100 μL) and incubated with MTT solution (100 μL of solution 0.5 mg/mL in PBS) for 4 h. Then, the solution was removed, and the formazan crystals were dissolved with 100 μL of ethanol/DMSO (1:1). The absorbance was measured using a microplate reader at 595 nm (Bio-Rad iMark, Hercules, CA, USA).

The next series concerns the target P-gp (Homo sapiens, UniProt P08183). In words: Thermostabilization assay on ATPase activity of P-gp. The format is biochemical. More on the design: made in house; host or cells: High-Five insect cells (total membrane vesicles). The conditions noted are these: C4a 10 μM. On the procedure: (§1) The thermal stability assay was performed according to previous reports. […] To evaluate the effect of C4a over thermal stability, each sample was prepared with 12.5 mM MgCl2 or 6.25 mM ATP and incubated at a temperature ranging from 37 to 71 °C for 10 min using a thermocycler C1000 Touch (Bio-Rad, Hercules, CA, USA). After incubation, 10 µL of 25 mM ATP or 50 mM MgCl2 (5 and 10 mM final concentration, respectively) was added and incubated at 37 °C/20 min to allow ATP hydrolysis. The reaction was stopped with the addition of 50 µL of Pi reagent containing 1% ammonium molybdate, 2.5 N H2SO4 and 0.014% potassium-antimony tartrate. To evaluate the absorbance, the samples were transferred to a 96-well plate (50 µL/well), then 150 µL of 0.33% sodium ascorbate solution was added. The absorbance was measured after 10 min incubation at room temperature using the microplate reader Spectramax iD3 (Molecular Devices, San Jose, CA, USA). The sensitive activity to vanadate (Vi) was calculated as the difference between the activity in the absence of Vi minus the activity in the presence of Vi at each temperature.

The subject of a further series is T1, MRP1.
T1 construct: expressed in transfected cells; host or cells: BHK21 (stably transfected, methotrexate selection; gift of Dr. Attilio Di Pietro)
In words: Cell-based transport assay by flow cytometry, BHK21-ABCC1. More on the design: species or system human. The conditions noted are these: 10 µM, calcein-AM 0.2 µM. Here is the method:
Cell lines (HEK293-ABCG, NIH3T3-ABCB1 and BHK21-ABCC1) were kept at 37 °C in the presence of 5% CO2 in DMEM high glucose (Gibco, Sao Paulo, Brazil) supplemented with 10% Fetal Bovine Serum (Gibco, Sao Paulo, Brazil) and 1% antibiotic (penicillin/streptomycin–Hyclone Laboratories, Logan, UT, USA). The stably transfected cells were kept with specific selection agent for each ABC transporter: ABCG2–G418 0.75 mg/mL, P-gp–Colchicine 60 ng/mL, MRP1–Methotrexate 0.1 mg/mL. The cells HEK293-ABCG2, NIH3T3-ABCB1 and BHK21-ABCC1, overexpressing ABCG2, P-gp and MRP1, respectively, were kindly provided by Dr. Attilio Di Pietro (IBCP, Lyon, France).
Cells were seeded into 24-well plates at a density of 1 × 10^5 cells/well and incubated for 48 h at 37 °C and 5% of CO2. When the confluence reached 90–95%, the medium was removed and the cells were exposed to inhibitors and substrates for 30 min at 37 °C. […] The intracellular fluorescence was recorded by flow cytometry (FACS Calibur–Becton Dickinson, San Diego, CA, USA). […] The inhibition percent was calculated as follows: % of inhibition = ((C − S))/((I − S)) × 100, where “C” represents the treatment with substrate + compound in test, “S” represents the treatment with substrate alone and “I” represents the treatment with substrate + reference inhibitor.

Series [1] addresses T2, ABCG2 (Homo sapiens, UniProt Q9UNQ0).
T2 sequence (Q9UNQ0 1-655): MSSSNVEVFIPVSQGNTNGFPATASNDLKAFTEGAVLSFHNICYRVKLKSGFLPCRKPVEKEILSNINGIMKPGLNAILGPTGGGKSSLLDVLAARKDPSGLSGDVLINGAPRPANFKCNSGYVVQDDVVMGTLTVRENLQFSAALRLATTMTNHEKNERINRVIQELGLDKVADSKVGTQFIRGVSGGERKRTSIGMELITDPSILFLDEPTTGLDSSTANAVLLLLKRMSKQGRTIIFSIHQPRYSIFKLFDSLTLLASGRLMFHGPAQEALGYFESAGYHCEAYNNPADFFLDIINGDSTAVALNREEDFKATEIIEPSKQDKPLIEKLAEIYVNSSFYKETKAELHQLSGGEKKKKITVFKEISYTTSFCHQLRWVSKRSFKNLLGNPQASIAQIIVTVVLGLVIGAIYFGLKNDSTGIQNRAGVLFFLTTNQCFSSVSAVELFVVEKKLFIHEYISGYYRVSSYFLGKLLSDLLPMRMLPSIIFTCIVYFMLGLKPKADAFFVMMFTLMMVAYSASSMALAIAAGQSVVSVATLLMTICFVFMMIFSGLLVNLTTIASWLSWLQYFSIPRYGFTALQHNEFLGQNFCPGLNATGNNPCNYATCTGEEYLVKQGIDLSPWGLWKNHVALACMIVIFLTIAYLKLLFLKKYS
As to the kind of experiment: Thermostabilization assay on ATPase activity of ABCG2. The format is biochemical. More on the design: expressed in transfected cells; host or cells: HEK293 (stably transfected, G418 selection; gift of Dr. Attilio Di Pietro). Particulars: C4a 10 μM. On the procedure:
as §1

Series [2] addresses T2, ABCG2. As to the kind of experiment: ATPase activity, High-Five ABCG2 total membrane vesicles.
Description: (§2) The absorbance was measured after 10 min incubation at room temperature using the spectrophotometer Ultrospec 3100 pro (Amersham Biosciences, Amersham, UK) at 880 nm wavelength.
Another series addresses T3, ABCG2 versus P-gp (Homo sapiens, UniProt Q9UNQ0).
T3 sequence (Q9UNQ0 1-655): T2 sequence (Q9UNQ0 1-655)
In words: in vitro. Particulars: high-five membrane vesicles, pH 6.8.

Series [3] deals with T2, ABCG2. As to the kind of experiment: 5D3 shift assay. Type of series: cell-based. Further details: expressed in transfected cells; host or cells: HEK293 (stably transfected, G418 selection; gift of Dr. Attilio Di Pietro). The conditions noted are these: C4a 10 µM, Ko143 2 µM, HEK293-ABCG2.
Description: HEK293-ABCG2 cells were seeded into 24-well plates at a density of 2 × 10^5 cells/well. When the confluence reached 90–95%, the medium was removed and the cells were exposed to inhibitors for 30 min at 37 °C. Then, the cell monolayer was washed with PBS at 37 °C, trypsinized and resuspended with 300 µL of PBS. Cells were centrifuged (1000× g for 3 min). The pellet was resuspended in 100 μL of PBS/BSA (40 μg/mL of BSA) and the primary antibody (mouse anti-human CD338 Clone 5D3, BD Pharmingen, San Diego, CA, USA) was added (1:100) for 30 min at 37 °C. Cells were centrifuged (1000× g, 3 min), the supernatant removed and the pellet resuspended with 100 μL of PBS containing the secondary antibody (goat anti-mouse conjugated with Phycoerythrin, BD Pharmingen, San Diego, CA, USA) at 1:200 for 30 min at 37 °C. Then, cells were centrifuged, the supernatant removed and the pellet was resuspended in 300 μL of PBS. The analysis was performed using a FACS Calibur (Becton Dickinson, San Diego, CA, USA).

Structures are written as SMILES.

Sequence of P-gp (P08183 whole entry): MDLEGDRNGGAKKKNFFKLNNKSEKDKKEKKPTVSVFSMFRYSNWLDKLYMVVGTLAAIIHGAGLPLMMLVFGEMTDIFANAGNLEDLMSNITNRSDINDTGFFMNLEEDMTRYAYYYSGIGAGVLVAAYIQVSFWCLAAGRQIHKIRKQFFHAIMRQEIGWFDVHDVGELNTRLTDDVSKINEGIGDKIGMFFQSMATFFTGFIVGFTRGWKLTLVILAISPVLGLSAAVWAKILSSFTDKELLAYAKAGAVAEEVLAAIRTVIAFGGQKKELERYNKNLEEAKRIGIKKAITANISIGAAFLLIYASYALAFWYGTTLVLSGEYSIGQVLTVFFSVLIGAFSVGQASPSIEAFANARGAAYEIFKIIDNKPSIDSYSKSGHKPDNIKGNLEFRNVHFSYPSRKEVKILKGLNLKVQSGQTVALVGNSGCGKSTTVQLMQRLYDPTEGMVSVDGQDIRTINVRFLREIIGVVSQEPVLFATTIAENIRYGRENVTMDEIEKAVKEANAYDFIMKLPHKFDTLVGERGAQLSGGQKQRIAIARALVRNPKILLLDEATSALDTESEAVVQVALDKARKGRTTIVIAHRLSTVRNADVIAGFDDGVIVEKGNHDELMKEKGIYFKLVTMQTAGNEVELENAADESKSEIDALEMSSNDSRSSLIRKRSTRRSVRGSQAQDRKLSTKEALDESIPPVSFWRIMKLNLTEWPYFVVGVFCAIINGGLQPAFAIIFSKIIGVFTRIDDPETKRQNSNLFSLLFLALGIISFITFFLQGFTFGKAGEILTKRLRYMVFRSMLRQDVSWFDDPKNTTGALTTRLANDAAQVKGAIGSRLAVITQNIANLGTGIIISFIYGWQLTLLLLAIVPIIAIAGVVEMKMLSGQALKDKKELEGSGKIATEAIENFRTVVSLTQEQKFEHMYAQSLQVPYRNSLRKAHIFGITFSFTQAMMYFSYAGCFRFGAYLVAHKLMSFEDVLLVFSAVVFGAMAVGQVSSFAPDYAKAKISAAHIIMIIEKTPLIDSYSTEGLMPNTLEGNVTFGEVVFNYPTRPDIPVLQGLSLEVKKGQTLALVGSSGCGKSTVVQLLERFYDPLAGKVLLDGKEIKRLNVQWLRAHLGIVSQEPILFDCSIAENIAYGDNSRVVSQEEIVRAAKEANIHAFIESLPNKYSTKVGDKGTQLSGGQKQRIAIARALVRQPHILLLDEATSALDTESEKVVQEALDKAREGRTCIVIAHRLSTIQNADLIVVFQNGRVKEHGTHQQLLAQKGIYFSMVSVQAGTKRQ
Description for ABCG2 versus P-gp: as §2

For `COc1ccc2[nH]cc(CCNC(=O)c3cc(=O)c4c(OCc5ccccc5Br)cccc4o3)c2c1` [C4a, chromone 4a], the “reversion of the resistance phenotype mediated by ABCG2, supernatant” value in the series with HEK293-ABCG2 cells is “complete reversion”. Also, the “effect on ATP-induced thermostabilization of P-gp” value at P-gp was “preventing thermostabilization”. The “IT50, P-gp -ATP” value on P-gp (absence of ATP) was 50.02 ± 0.31 ºC. Also, the “inhibition of calcein efflux mediated by MRP1” value in the series with MRP1 is listed as “did not inhibit”. Further, the “effect on thermal stability of ABCG2” value at ABCG2 [1] was “mild effect”. In addition, on ABCG2 [1] (absence of ATP), the “IT50, ABCG2 -ATP” value was 50.01 ± 0.26 ºC. At ABCG2 [1] (presence of ATP), the “IT50 (temperature that reduces 50% of the ATPase activity), ABCG2 +ATP” value is 55.44 ± 0.25 ºC. This molecule also displayed an EC50 on ABCG2 [2] of 0.064 µM. In addition, the selectivity ratio at 20 min on ABCG2 versus P-gp worked out at 67. In addition, at ABCG2 [3], the “binding of conformational antibody 5D3” value was “increased the binding of 5D3”.
